# Source: PMC6416464 (Drug Metabolism Letters, 2018)
# Key:
# CYP2C8 = target: T1, CYP2C8 (Homo sapiens, UniProt P10632); experiment: CYP inhibition in human liver microsomes, CYP2C8; details: human, human liver microsomes, pH 7.4, probe paclitaxel
# T1 sequence (P10632 1-490): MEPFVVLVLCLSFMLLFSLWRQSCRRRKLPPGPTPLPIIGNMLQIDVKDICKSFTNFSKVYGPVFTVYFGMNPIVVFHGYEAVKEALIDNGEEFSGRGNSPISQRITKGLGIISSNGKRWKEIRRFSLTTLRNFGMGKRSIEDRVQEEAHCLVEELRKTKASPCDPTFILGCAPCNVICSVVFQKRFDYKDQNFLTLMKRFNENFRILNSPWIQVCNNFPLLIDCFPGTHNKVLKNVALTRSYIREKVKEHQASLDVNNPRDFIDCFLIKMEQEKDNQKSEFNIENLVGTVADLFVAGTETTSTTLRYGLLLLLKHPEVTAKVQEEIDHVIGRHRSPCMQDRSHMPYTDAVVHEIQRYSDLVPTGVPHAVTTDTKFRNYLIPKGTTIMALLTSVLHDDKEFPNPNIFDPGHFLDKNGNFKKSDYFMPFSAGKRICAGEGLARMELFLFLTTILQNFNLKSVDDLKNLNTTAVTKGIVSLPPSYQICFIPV
# rCYP2C9 = rCYP2C9 (Homo sapiens, UniProt P11712); experiment: Metabolic stability / reaction phenotyping with recombinant human CYP2C9
# CYP3A4 [1] = target: T2, CYP3A4 (Homo sapiens, UniProt P08684); experiment: in vitro; details: microsomes, pH 7.4
# CYP3A4 [2] = target: T2, CYP3A4; experiment: in vitro; details: microsomes, pH 7.4, % Inhibition of Control Activity CYP3A4 (substrate, testosterone)
# rCYP2C8 = target: T3, rCYP2C8 (Homo sapiens, UniProt P10632); experiment: Metabolic stability / reaction phenotyping with recombinant human CYP2C8
# T3 sequence (P10632 1-490): T1 sequence (P10632 1-490)
# rCYP3A4 = rCYP3A4 (Homo sapiens, UniProt P08684); details: human, pH 7.4
# rCYP2C19 = rCYP2C19 (Homo sapiens, UniProt P33261); experiment: Metabolic stability / reaction phenotyping with recombinant human CYP2C19; details: 1 µM test compound; 100 pmol/mL; 30 min
# [3] = Metabolic stability, incubation with human liver cytosol; format: in vitro ADME; details: 1 µM test compound, 1 mg/mL protein
# CYP2C19 = CYP2C19 (Homo sapiens, UniProt P33261); experiment: CYP inhibition in human liver microsomes, CYP2C19; details: inhibitor 10 µM; HLM; NI: No Inhibitin; 10 µM
# rCYP2D6 = rCYP2D6 (Homo sapiens, UniProt P10635); experiment: Metabolic stability / reaction phenotyping with recombinant human CYP2D6
# rCYP1A2 = target: T4, rCYP1A2 (Homo sapiens, UniProt P05177); experiment: Metabolic stability / reaction phenotyping with recombinant human CYP1A2
# T4 sequence (P05177 1-516): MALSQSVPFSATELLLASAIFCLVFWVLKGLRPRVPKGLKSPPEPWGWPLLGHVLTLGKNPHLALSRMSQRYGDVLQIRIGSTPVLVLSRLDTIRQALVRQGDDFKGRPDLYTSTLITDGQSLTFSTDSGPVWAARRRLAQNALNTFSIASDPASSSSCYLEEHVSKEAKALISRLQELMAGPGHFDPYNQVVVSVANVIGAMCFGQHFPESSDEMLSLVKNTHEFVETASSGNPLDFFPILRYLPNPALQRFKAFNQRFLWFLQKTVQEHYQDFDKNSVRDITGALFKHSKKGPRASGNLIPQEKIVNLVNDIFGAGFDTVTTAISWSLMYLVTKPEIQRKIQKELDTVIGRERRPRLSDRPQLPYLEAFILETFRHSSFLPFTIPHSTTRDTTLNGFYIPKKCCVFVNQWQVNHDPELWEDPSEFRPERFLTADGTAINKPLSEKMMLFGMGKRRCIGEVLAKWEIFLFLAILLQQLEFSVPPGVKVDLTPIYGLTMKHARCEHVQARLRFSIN
# [4] = Metabolic stability, incubation with human liver microsomes; details: 1 µM test compound, 0.5 mg/mL protein
# CYP2C9 = CYP2C9 (Homo sapiens, UniProt P11712); experiment: CYP inhibition in human liver microsomes, CYP2C9
# CYP1A2 = target: T5, CYP1A2 (Homo sapiens, UniProt P05177); experiment: CYP inhibition in human liver microsomes, CYP1A2; details: inhibitor 10 µM; HLM; NI: No Inhibitin; 10 µM
# T5 sequence (P05177 1-516): T4 sequence (P05177 1-516)
# [5] = 1 µM test compound, 100 pmol/mL, 30 min
# [6] = human, recombinant human CYP2C9, 1 µM, pH 7.4
# [7] = human, recombinant human CYP2C8, 1 µM, pH 7.4
# [8] = human, recombinant human CYP2D6, 1 µM, pH 7.4
# [9] = human, recombinant human CYP1A2, 1 µM, pH 7.4
# Chain of rCYP2C9 (P11712 whole entry): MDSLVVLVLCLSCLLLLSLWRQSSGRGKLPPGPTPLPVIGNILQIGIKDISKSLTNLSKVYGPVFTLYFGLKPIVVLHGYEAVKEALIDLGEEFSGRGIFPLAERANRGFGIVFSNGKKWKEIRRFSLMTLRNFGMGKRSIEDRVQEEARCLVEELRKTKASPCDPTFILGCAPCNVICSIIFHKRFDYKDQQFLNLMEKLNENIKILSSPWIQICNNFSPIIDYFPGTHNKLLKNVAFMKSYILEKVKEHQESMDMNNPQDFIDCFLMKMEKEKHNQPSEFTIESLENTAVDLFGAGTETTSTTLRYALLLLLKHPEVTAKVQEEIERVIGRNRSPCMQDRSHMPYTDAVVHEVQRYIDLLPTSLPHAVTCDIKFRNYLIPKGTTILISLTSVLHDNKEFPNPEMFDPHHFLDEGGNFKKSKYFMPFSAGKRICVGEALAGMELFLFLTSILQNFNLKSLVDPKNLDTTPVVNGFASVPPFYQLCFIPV
# Chain of rCYP2D6 (P10635 whole entry): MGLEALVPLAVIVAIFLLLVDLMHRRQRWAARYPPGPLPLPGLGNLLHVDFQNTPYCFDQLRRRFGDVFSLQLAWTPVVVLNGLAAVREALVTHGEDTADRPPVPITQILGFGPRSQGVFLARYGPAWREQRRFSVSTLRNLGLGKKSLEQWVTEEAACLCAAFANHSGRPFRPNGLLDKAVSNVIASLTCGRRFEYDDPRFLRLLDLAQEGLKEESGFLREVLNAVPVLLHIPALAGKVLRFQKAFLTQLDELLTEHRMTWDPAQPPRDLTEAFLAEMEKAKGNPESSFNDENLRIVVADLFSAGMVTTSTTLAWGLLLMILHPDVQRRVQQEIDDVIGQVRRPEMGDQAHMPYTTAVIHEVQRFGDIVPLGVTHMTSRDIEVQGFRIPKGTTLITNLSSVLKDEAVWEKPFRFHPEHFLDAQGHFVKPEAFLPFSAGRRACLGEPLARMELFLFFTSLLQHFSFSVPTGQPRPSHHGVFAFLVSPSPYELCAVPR
# T2 sequence (P08684 2-503): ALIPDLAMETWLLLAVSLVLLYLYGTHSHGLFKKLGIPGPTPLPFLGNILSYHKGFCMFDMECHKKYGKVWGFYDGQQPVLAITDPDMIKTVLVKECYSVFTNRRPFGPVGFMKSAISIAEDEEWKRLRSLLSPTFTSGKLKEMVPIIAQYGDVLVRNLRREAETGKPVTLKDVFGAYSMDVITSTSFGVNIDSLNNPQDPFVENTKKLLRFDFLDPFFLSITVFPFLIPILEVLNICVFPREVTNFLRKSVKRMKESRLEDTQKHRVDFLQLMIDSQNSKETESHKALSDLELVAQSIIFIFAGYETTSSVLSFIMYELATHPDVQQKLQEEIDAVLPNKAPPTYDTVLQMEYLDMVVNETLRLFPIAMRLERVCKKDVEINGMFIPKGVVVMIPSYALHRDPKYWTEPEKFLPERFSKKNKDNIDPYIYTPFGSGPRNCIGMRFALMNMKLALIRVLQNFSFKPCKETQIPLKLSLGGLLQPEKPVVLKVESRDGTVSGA
# Chain of rCYP3A4 (P08684 whole entry): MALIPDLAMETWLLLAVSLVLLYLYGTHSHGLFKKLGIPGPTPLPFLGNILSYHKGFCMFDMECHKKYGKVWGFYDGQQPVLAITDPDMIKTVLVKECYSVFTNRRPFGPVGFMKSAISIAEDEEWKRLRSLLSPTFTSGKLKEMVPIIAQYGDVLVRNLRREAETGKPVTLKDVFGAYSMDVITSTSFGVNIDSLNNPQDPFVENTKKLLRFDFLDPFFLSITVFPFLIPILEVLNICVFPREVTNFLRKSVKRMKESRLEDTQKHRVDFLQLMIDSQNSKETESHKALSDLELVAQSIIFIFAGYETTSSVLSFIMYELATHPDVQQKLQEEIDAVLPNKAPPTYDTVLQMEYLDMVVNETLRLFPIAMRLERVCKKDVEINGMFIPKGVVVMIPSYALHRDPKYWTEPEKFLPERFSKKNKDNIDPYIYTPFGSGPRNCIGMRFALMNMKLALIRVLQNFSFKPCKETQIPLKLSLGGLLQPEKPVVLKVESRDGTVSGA
# Chain of CYP2C9 (P11712 whole entry): as the sequence (P11712 whole entry) above
# Chain of CYP2C19 (P33261 whole entry): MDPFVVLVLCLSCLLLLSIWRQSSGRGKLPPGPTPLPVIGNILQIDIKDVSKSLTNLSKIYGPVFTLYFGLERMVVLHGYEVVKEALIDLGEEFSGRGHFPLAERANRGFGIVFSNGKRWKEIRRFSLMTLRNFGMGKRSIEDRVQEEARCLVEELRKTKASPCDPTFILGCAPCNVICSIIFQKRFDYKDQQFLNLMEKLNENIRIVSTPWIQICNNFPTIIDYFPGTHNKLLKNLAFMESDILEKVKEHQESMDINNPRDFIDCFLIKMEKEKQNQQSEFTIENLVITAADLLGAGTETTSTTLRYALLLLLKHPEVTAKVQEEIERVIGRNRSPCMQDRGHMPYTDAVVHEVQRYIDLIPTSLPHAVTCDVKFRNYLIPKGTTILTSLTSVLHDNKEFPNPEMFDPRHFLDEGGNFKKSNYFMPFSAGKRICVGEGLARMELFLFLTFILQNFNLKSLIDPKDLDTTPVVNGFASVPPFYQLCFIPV
# Chain of rCYP2C19 (P33261 whole entry): as above
smiles,measurement,setting,value
"CC(C)(O)c1ccccc1CC[C@@H](SCC1(CC(=O)O)CC1)c1cccc(/C=C/c2ccc3ccc(Cl)cc3n2)c1 [Montelukast, montelukast, reference compound]",inhibition at 2 µM,CYP2C8,93.7%
same,inhibition at 10 µM,CYP2C8,97.3%
same,% Metabolized at 30 min Incubation with Human Liver Fractions/Enzymes rCYP2C9,rCYP2C9; [5],10.85%
same,"% Contribution of CYP Enzymes (fmCYP) in Metabolism, CYP2C9",rCYP2C9; [6],9.08%
same,"Predicted Microsomal Clint, CYP2C9",rCYP2C9; [6],3.675 µL/min/mg Protein
same,"rCYP Clint, CYP2C9",rCYP2C9; [6],0.038 µL/min/pmol
same,inhibition at 2 µM,CYP3A4 [1],20%
same,inhibition at 10 µM,CYP3A4 [1],48%
same,inhibition at 2 µM,CYP3A4 [2],0.79%
same,inhibition at 10 µM,CYP3A4 [2],11.2%
same,% Metabolized at 30 min Incubation with Human Liver Fractions/Enzymes rCYP2C8,rCYP2C8; [5],52.29%
same,"% Contribution of CYP Enzymes (fmCYP) in Metabolism, CYP2C8",rCYP2C8; [7],39.00%
same,"Predicted Microsomal Clint, CYP2C8",rCYP2C8; [7],15.789 µL/min/mg Protein
same,"rCYP Clint, CYP2C8",rCYP2C8; [7],0.247 µL/min/pmol
same,"Predicted Microsomal Clint, CYP3A4",rCYP3A4,19.054 µL/min/mg Protein
same,% Metabolized at 30 min Incubation with Human Liver Fractions/Enzymes rCYP3A4,"rCYP3A4; recombinant enzyme, 0.5 h",40.25%
same,"% Contribution of CYP Enzymes (fmCYP) in Metabolism, CYP3A4",rCYP3A4; recombinant enzyme,47.07%
same,"rCYP Clint, CYP3A4",rCYP3A4; recombinant enzyme,0.172 µL/min/pmol
same,% Metabolized at 30 min Incubation with Human Liver Fractions/Enzymes rCYP2C19,rCYP2C19,0.00%
same,% Metabolized at 30 min Incubation with Human Liver Fractions/Enzymes Cytosol,[3],10.13%
same,% Inhibition of Control Activity CYP2C19,CYP2C19,22.70%
same,% Metabolized at 30 min Incubation with Human Liver Fractions/Enzymes rCYP2D6,rCYP2D6; [5],7.46%
same,"% Contribution of CYP Enzymes (fmCYP) in Metabolism, CYP2D6",rCYP2D6; [8],0.64%
same,"Predicted Microsomal Clint, CYP2D6",rCYP2D6; [8],0.258 µL/min/mg Protein
same,"rCYP Clint, CYP2D6",rCYP2D6; [8],0.026 µL/min/pmol
same,% Metabolized at 30 min Incubation with Human Liver Fractions/Enzymes rCYP1A2,rCYP1A2; [5],9.37%
same,"% Contribution of CYP Enzymes (fmCYP) in Metabolism, CYP1A2",rCYP1A2; [9],4.21%
same,"Predicted Microsomal Clint, CYP1A2",rCYP1A2; [9],1.705 µL/min/mg Protein
same,"rCYP Clint, CYP1A2",rCYP1A2; [9],0.033 µL/min/pmol
same,% Metabolized at 30 min Incubation with Human Liver Fractions/Enzymes HLM,[4],25.71%
same,IC50,CYP2C9,1340 nM
same,% Inhibition of Control Activity CYP1A2,CYP1A2,24.96%
